According to a melting point compilation (Tetko et al.; mined from patent text by program, amines drawn as free bases though some values may be those of a salt):

| SMILES | melting point |
| --- | --- |
| COC(=O)c1cccnc1Oc1ccc(F)cc1 | 97 to 99 °C |
| O=C(O)C(=O)c1ccc2c(c1)CCS2 | 122 to 123 °C |
| CN1CC(C(=O)c2ccc(Cc3ccc(F)cc3)o2)=C(O)C1=O | 141 to 143 °C |
| CN1CCCC1=Nc1ncnc2c1ncn2C1=CC(=O)CC1 | 200 to 205 °C |
| O=C1CCC(N2C(=O)c3cccc(OCc4ccc(CN5CCN6N=C(C(F)(F)F)NC6C5)cc4)c3C2=O)C(=O)N1 (stereo not drawn) | 128 to 130 °C |
| CC1=Nc2ccccc2C(=O)C1 | 198 to 200 °C |
| COCCC(=O)N[C@H]1CC[C@H](CCN2CCN(c3ncc(C)c4occc34)CC2)CC1 | 177 °C |
| CCO[C@@H]1C[C@@H](C(=O)NC)N(S(=O)(=O)c2ccc(Cl)c(CBr)c2Cl)C1 | 122 °C |
| N#CC1CN1Cc1ccccc1 (stereo not drawn) | 81 to 83 °C |
| O=C1CCCc2ccc([N+](=O)[O-])cc21 | 104 to 105 °C |
| C=CCc1ccc(O)c(-c2cc(CC=C)ccc2O)c1 | 101 to 103 °C |
| CC(C)(C)C(=O)C(C(O)C(Cl)(Cl)Cl)n1cncn1 (stereo not drawn) | 220 to 222 °C |
| COC(=O)C=Cc1ccc2c(c1)Cc1cc(C=CC(=O)OC)ccc1-2 | 206 to 209 °C |
| Cc1cc(C(=O)N(C2CCCCC2)C2CCCC2)ccc1Cn1cnc2ncccc21 | 191 to 192 °C |
| COc1cc2c(cc1OC)CN(c1cc(N)c3cc(OC)c(OC)cc3n1)CC2 | 226 to 227 °C |
| CC(C)OC(=O)COCc1cc(-c2nn(C)c(C(F)(F)F)c2Cl)c(F)cc1Cl | 55 °C |
| CC(C)C[C@H](N)C(=O)NCCCCNC(=O)c1ccccc1 | 146 to 148 °C |
| CN1C(=O)CN=C(c2ccccc2F)c2cc(NC(=O)NCCCO)ccc21 | 118 to 119 °C |
| N#Cc1nc(Cl)ccc1[N+](=O)[O-] | 115 to 117 °C |
| CN1C(=O)C(C)(C)N=C(c2ccccc2Cl)c2cc(N)ccc21 | 85 to 110 °C |
| CN1CC(CNNC(=S)Nc2ccccc2)CC2c3cccc4[nH]cc(c34)CC21 (stereo not drawn) | 205 to 206 °C |
| Cc1cnc2c(c1)CCCC2O (stereo not drawn) | 58 °C |

| SMILES | melting point |
| --- | --- |
| O=C1c2c(cccc2C(F)(F)F)-n2cnc(-c3noc(CN4Cc5ccccc5C4)n3)c2[C@@H]2CCN12 | 185 to 188 °C |
| CC(C)(C)c1ccc2c(c1)C(=O)CCC2 | 101 to 102 °C |
| CCCc1nc2c(N)nc3cc(OC)ccc3c2s1 | 152 to 154 °C |
| CCC(NCC(F)(F)F)c1ccc(Cl)c2nc3n(c12)CCCN3c1ccc(Cl)cc1Cl (stereo not drawn) | 133 to 135 °C |
| CCCCN(C)C(=O)CCCCCCCCCCSC1Cc2cc(O)ccc2C2CCC3(C)C(O)CCC3C12 (stereo not drawn) | 71 to 75 °C |
| Cc1cc2c(cc1C1=NNC(=O)CC1C)N(C)C(=O)CO2 (stereo not drawn) | 180 to 182 °C |
| C#CCn1c(=O)c(C(F)(F)F)cc2cc(F)c(-n3c(=O)cc(C(F)(F)F)n(C)c3=O)cc21 | 248 to 250 °C |
| Cc1cc(C)nc([NH+]([O-])C(=O)Cc2ccsc2)c1 (stereo not drawn) | 154 °C |
| CN1C(=O)CN=C(c2ccccc2)c2cc(NO)ccc21 | 211 to 213 °C |
| Cn1c(C(F)(F)F)cc(=O)n(-c2ccc3snc(OCC#N)c3c2)c1=O | 265 to 266 °C |
| C=C(C(=O)c1ccc(OC)c(Cl)c1Cl)C1CCCC1 | 59 to 63 °C |
| O=c1[nH]c2ccccc2n1C1CCN(C[C@@H]2CO[C@@H](c3ccc(F)cc3)C2)CC1 (relative stereo) | 154 to 155 °C |
| COCCn1cc2c(C3C(=O)Nc4ccc(Br)cc43)nc(NCCC3CCCNC3)nc2n1 (stereo not drawn) | 270 to 273 °C |
| Clc1ccc(-c2cccnc2)cn1 | 113 to 115 °C |
| C=CCOc1ccc2c(ccc(=O)n2CC=C(C)C)c1 | 80 to 82 °C |
| O=C(NCCCCO)OCc1ccccc1 | 80 to 81 °C |
| CCOC(=O)/C(=N\OC1CCCCCCC1)c1csc(N)n1 | 117 to 118 °C |
| CC1(C)C(=O)N(CC#CI)C(=O)N1Cc1ccccc1 | 109 to 112 °C |
| CCOC(=O)NC(=O)C1c2ccccc2Oc2c1cccc2C(F)(F)F (stereo not drawn) | 196 to 198 °C |
| CC(C)OCCNS(=O)(=O)NC(=O)OCc1ccccc1 | 88 to 89 °C |
| CCCCOC(=O)c1ccc(NC2=NC3=NC(Nc4ccc(C(=O)OCCCC)cc4)=NC4=NC(Nc5ccc(C(=O)OCCCC)cc5)=NC(=N2)N34)cc1 | 289 to 290 °C |
| N#CSc1nc(Cl)ncc1Br | 166 to 170 °C |

| SMILES | melting point |
| --- | --- |
| COC(=O)c1c(C)nc2cc(OC)c(OC)cc2c1-c1ccnc(Cl)c1 | 145 to 147 °C |
| CC(C)(NC(=O)Oc1ccc([N+](=O)[O-])cc1)C(F)(F)F | 77 to 80 °C |
| Fc1ccc(CCN2CCC(N3CCc4ccc(Br)cc43)CC2)cc1 | 99 to 101 °C |
| CC(=O)c1ccc2c(c1)C(n1ccccc1=O)C(O)C(C)(C)O2 (stereo not drawn) | 260 °C |
| C=C(C)C(C(=O)OCC(Cl)(Cl)Cl)N1C(=O)C(NC(=O)Cc2ccccc2)C1SSc1nc2ccccc2s1 (stereo not drawn) | 133 to 134 °C |
| COC(=O)c1ccc(CC(C)NCC(O)c2ccc(O)c(CO)c2)c(OC)c1 (stereo not drawn) | 96 to 105 °C |
| O=C(O)COc1ccc([N+](=O)[O-])c(C(F)(F)F)c1 | 92 to 95 °C |
| Cn1c(=O)n(C)c2cc(C(=O)CSCCC(=O)O)ccc21 | 174 to 176 °C |
| CCc1cc(C)cc(CC)c1C1C(=O)C2CC(COc3nc(C)c(C)s3)CC2C1=O (stereo not drawn) | 73 to 74 °C |
| CN(C)Cc1cccc(-c2[nH]c3cccc4c3c2CCNC4=O)c1 | 222 to 225 °C |
| COc1ccc(Br)cc1C1C2CC3CC(C2)CC1C3 (stereo not drawn) | 140 to 141 °C |
| COCCOc1ccc(O)cc1 | 97.9 °C |
| CC(C)Oc1cc(NNC(=N)C(F)(F)F)c(Cl)cc1Cl | 80.5 to 81 °C |
| N#Cc1cc2c(c(N3CCN(CCCCN4C(=O)c5ccccc5S4(=O)=O)CC3)c1)OCCO2 | 162 to 164 °C |
| CCOC(=O)c1cc(CCCOc2c(C)cc(-c3noc(C)n3)cc2C)on1 | 95 to 96 °C |
| CCCCCCCCCCCCCCCCCCOC(=O)P(=O)(OC)OC | 41 to 42 °C |
| CCCCCCCCCCCc1cc2ccc(C(=O)OC)cc2[nH]1 | 84 to 86 °C |
| CCOc1cc(OC)cc(OC(=O)CC)c1C(=O)C=Cc1ccc(OC)cc1 | 77.5 °C |
| O=c1c2cc(Br)ccc2c2cc3c(=O)c4cc(Br)ccc4c3cc12 | > 300 °C |
| C=CCNc1nc(C)c(C(=O)c2ccc(Cl)c([N+](=O)[O-])c2)s1 | 154 to 156 °C |

Now from value to molecule:

| melting point | SMILES |
| --- | --- |
| 301 to 304 °C | COc1ccc(Nc2nn3c(-c4ccc(OC)cc4)nnc3c3ccccc23)cc1 |
| 148 to 150 °C | Cc1ccc(CC(=O)NCc2cccc3c2C(=O)N(C2CCC(=O)NC2=O)C3=O)cc1F (stereo not drawn) |
| 75 °C | Cc1ccccc1C1(n2ccnc2)c2ccccc2-c2sccc21 (stereo not drawn) |
| 114 to 117 °C | CCn1cc(C2(c3ccc(F)c(-c4cccnc4F)c3)N=C(N)N(C)C2=O)cc1C(=O)OC (stereo not drawn) |
| 146 to 148 °C | CCn1nc(-c2ccc3cc(O)ccc3c2)c2ccc(O)cc21 |
| 93 to 94 °C | CN(C(=O)COc1onc(C(F)(F)F)c1-c1ccccc1)c1ccccc1 |
| 140 to 142 °C | CCc1cc(C(=O)c2ccccc2Cl)c(-n2cnnc2CNC(=O)c2ccccc2)s1 |
| 162 to 164 °C | COc1ccc(-c2nc3ccc(OC)cc3s2)cc1 |
| 140 to 141 °C | CCOC(=O)c1cc(OCc2ccccc2)c2nc(C)c(C)n2c1 |
| 156 °C | COc1cccc(OC)c1-c1ccc(C[C@H](NC(=O)c2c(Cl)cc(-c3ccn[nH]3)cc2Cl)C(=O)O)cc1 |
| 222 °C | COc1ccc(-n2c(CC(=O)O)c(C(=O)O)c3cc(Oc4ccc(S(C)(=O)=O)cc4)ccc32)cc1 |
| 225 °C | O=C(O)c1cnn2c(C(F)(F)F)cc(-c3ccc(OC(F)(F)F)cc3)nc12 |
| 202 to 204 °C | Cc1c(-c2ccccc2)c2cc(Cl)cc3c2n1CC3 |
| 180 to 187 °C | CN1C(=O)c2cccc(SCc3ccccc3)c2C1=O |
| 157 to 160 °C | CC(C)CC(=O)Nc1cccc(-c2ccnc3c(-c4ccc(-c5ccccc5)cc4)cnn23)c1 |
| 175 to 177 °C | COc1ccc(Cn2c3ncnc4c(ncn4Cc4ccc(OC)cc4)c-3nc2=O)cc1 |
| 152 to 155 °C | Cc1c(NC(=O)NCCO)c(C)c2c(c1-c1ccccc1)OCC2c1ccc(C(C)C)cc1 (stereo not drawn) |

| melting point | SMILES |
| --- | --- |
| 205 to 209 °C | COc1cc(C[C@H]2NC(=O)CN(Cc3ccccc3)C2=O)ccc1C |
| 223 to 225 °C | O=C(O)COc1cccc2c1CCc1sc(SCC(c3ccccc3)c3ccccc3)nc1-2 |
| 85 to 87 °C | CCCC(C(=O)N(C)C)n1cc(Cl)c(-c2ccccc2)n1 (stereo not drawn) |
| 167 to 170 °C | CN(C)c1ccc(-c2nc(Cl)c3ccccc3n2)cc1 |
| 91 to 92 °C | COc1ccc(C2=NN(Cc3ccccc3)C(=O)[C@H]3CCCC[C@@H]23)cc1OC1CCCC1 (relative stereo) |
| 111 to 112 °C | COc1cc(COc2nn(-c3ccccc3)cc2CC2SC(=O)N(C)C2=O)ccc1OCc1nc(-c2ccco2)oc1C (stereo not drawn) |
| 104 to 111 °C | CC(C)N(CCC(CCN1CCCCC1)(C(N)=O)c1ccccc1Cl)Cc1ccccc1 (stereo not drawn) |
| 184 to 189 °C | O=C(O)C1=Cc2cc(OCc3ccccc3)ccc2OC1 |
| 92 °C | O=C(O)Cc1ccc(OCCNC(=O)C2Cc3ccccc3N2S(=O)(=O)c2ccc(-c3cccc(C(F)(F)F)c3)cc2)cc1 (stereo not drawn) |
| 168 to 169 °C | COc1cc2c3c(cccc3c1)C(=O)c1ccccc1-2 |
| 128 to 130 °C | COC(=O)c1cccc(-c2cc(CCNC(=O)C3CCC3)c3cc(OC)ccc3c2)c1 |
| 190 °C | O=C(Nc1ccc(C=CCN2C(=O)c3ccccc3C2=O)cc1)c1ccccc1-c1ccc(C(F)(F)F)cc1 |
| 102 to 109 °C | CCCc1c(C(=O)NCc2ccc(-c3ccc(OCC#N)c(Br)c3)cc2)cnn1-c1ccccc1 |
| 108 to 109 °C | COc1ccc([N+](=O)[O-])cc1C(=O)NCc1ccc(C(F)(F)F)cc1 |
| 112 to 113 °C | CN1CCN(Cc2cc(-c3ccc4c(c3)CCO4)nn(CC=Cc3ccc(Cl)cc3)c2=O)CC1 |
| 224 °C | OC(Cn1ccnc1)(c1ccccc1)c1ccc(-c2ccccc2)cc1 (stereo not drawn) |
| 198 to 200 °C | O=C(NNS(=O)(=O)c1ccccc1)c1nccc2ccccc12 |
